Measured values reported in US6673938B1, “Substituted pyridine herbicides” (Syngenta Participations AG, priority 1998, dated 2004).

Key:
[1] = test system: Monocotyledonous and dicotyledonous test plants; test: Post-emergence herbicidal action; assay type: in vivo; details: 2000 g/ha, sprayed in 4- to 6-leaf stage, evaluated after approximately 18 days, nine-step scale
Method: Monocotyledonous and dicotyledonous test plants are grown in the greenhouse in plastic pots containing standard soil, and, in the 4- to 6-leaf stage, sprayed with an aqueous suspension of the test substances of the formula I prepared with a 25% wettable powder (Example F3, b) in accordance with WO 97/34485) or with an emulsion of the test substances of the formula I prepared with a 25% emulsion concentrate (Example F1, c) in accordance with WO 97/34485), corresponding to a rate of 2 kg of a.i./ha or 250 g of a.i./ha (500 l of water/ha). The test plants are subsequently grown on in the greenhouse under optimal conditions. After a test period of approximately 18 days, the test is evaluated with reference to a nine-step scale (1=complete damage, 9=no effect). Score figures of 1 to 4 (in particular 1 to 3) mean a good to very good herbicidal action. In this test, the compounds of the formula I show a potent herbicidal action.

[2] = test system: Monocotyledonous and dicotyledonous test plants; test: Herbicidal action before emergence of the plants (pre-emergence action); assay type: in vivo; details: 2000 g/ha, evaluated after 3 weeks, nine-step scale
Method: Monocotyledonous and dicotyledonous test plants are sown in standard soil in plastic pots. Immediately after sowing, the test substances as aqueous suspensions (prepared with a 25% wettable powder (Example F3, b) in accordance with WO 97/34485) or as emulsions (prepared with a 25% emulsion concentrate (Example F1, c)) are sprayed on at a rate of 2 kg of a.i./ha or 250 g of a.i./ha (500 l of water/ha). The test plants are then grown in the greenhouse under optimal conditions. After a test period of 3 weeks, the experiment is evaluated with reference to a nine-step scale (1=complete damage, 9=no effect). Score figures of 1 to 4 (in particular 1 to 3) mean a good to very good herbicidal action.

## COC(=O)C1(C)CCC(=O)C(C(=O)c2ccc(C(F)(F)F)nc2C)=C1O (stereo not drawn) [Compound A2-B34]
[1]
  Post-emergence action, Ipomoea: 1
  Post-emergence action, Lolium: 3
  Post-emergence action, Setaria: 2
  Post-emergence action, Sinapis: 1
  Post-emergence action, Solanum: 1
  Post-emergence action, Stellaria: 2
[2]
  pre-emergence action, Cyperus: 1
  pre-emergence action, Ipomoea: 3
  pre-emergence action, Setaria: 2
  pre-emergence action, Sinapis: 2
  pre-emergence action, Solanum: 1
  pre-emergence action, Stellaria: 2

## CCOC(=O)C1(C)CCC(=O)C(C(=O)c2ccc(C(F)(F)F)nc2C)=C1O (stereo not drawn) [Compound A2-B35]
[1]
  Post-emergence action, Ipomoea: 1
  Post-emergence action, Lolium: 3
  Post-emergence action, Setaria: 2
  Post-emergence action, Sinapis: 1
  Post-emergence action, Solanum: 1
  Post-emergence action, Stellaria: 2
[2]
  pre-emergence action, Cyperus: 2
  pre-emergence action, Ipomoea: 4
  pre-emergence action, Setaria: 2
  pre-emergence action, Sinapis: 2
  pre-emergence action, Solanum: 2
  pre-emergence action, Stellaria: 2

## Cc1nc(C(F)(F)F)ccc1C(=O)C1=C(O)C(C(C)C)CC(C)C1=O (stereo not drawn) [Compound A2-B49]
[1]
  Post-emergence action, Ipomoea: 2
  Post-emergence action, Lolium: 2
  Post-emergence action, Setaria: 2
  Post-emergence action, Sinapis: 1
  Post-emergence action, Solanum: 2
  Post-emergence action, Stellaria: 2
[2]
  pre-emergence action, Cyperus: 2
  pre-emergence action, Ipomoea: 4
  pre-emergence action, Setaria: 2
  pre-emergence action, Sinapis: 2
  pre-emergence action, Solanum: 1
  pre-emergence action, Stellaria: 2

## Cc1nc(C(F)(F)F)ccc1C(=O)C1=C(O)C(C)(C)CC(C)C1=O (stereo not drawn) [Compound A2-B68]
[1]
  Post-emergence action, Ipomoea: 1
  Post-emergence action, Lolium: 2
  Post-emergence action, Setaria: 2
  Post-emergence action, Sinapis: 1
  Post-emergence action, Solanum: 1
  Post-emergence action, Stellaria: 2
[2]
  pre-emergence action, Cyperus: 1
  pre-emergence action, Ipomoea: 2
  pre-emergence action, Setaria: 1
  pre-emergence action, Sinapis: 2
  pre-emergence action, Solanum: 1
  pre-emergence action, Stellaria: 2

## CCC1(C)CC(C)C(=O)C(C(=O)c2ccc(C(F)(F)F)nc2C)=C1O (stereo not drawn) [Compound A2-B69]
[1]
  Post-emergence action, Ipomoea: 1
  Post-emergence action, Lolium: 2
  Post-emergence action, Setaria: 2
  Post-emergence action, Sinapis: 1
  Post-emergence action, Solanum: 2
  Post-emergence action, Stellaria: 2
[2]
  pre-emergence action, Cyperus: 1
  pre-emergence action, Ipomoea: 4
  pre-emergence action, Setaria: 2
  pre-emergence action, Sinapis: 2
  pre-emergence action, Solanum: 1
  pre-emergence action, Stellaria: 1

## CSC1(C)CC(C)C(=O)C(C(=O)c2ccc(C(F)(F)F)nc2C)=C1O (stereo not drawn) [Compound A2-B73]
[1]
  Post-emergence action, Ipomoea: 1
  Post-emergence action, Lolium: 3
  Post-emergence action, Setaria: 2
  Post-emergence action, Sinapis: 1
  Post-emergence action, Solanum: 1
  Post-emergence action, Stellaria: 2
[2]
  pre-emergence action, Cyperus: 3
  pre-emergence action, Ipomoea: 4
  pre-emergence action, Setaria: 2
  pre-emergence action, Sinapis: 2
  pre-emergence action, Solanum: 2
  pre-emergence action, Stellaria: 2

## Cc1nc(C(F)(F)F)ccc1C(=O)C1=C(O)C(C)(S(C)(=O)=O)CC(C)C1=O (stereo not drawn) [Compound A2-B75]
[1]
  Post-emergence action, Ipomoea: 2
  Post-emergence action, Lolium: 2
  Post-emergence action, Setaria: 3
  Post-emergence action, Sinapis: 1
  Post-emergence action, Solanum: 2
  Post-emergence action, Stellaria: 2
[2]
  pre-emergence action, Cyperus: 2
  pre-emergence action, Ipomoea: 3
  pre-emergence action, Setaria: 2
  pre-emergence action, Sinapis: 2
  pre-emergence action, Solanum: 1
  pre-emergence action, Stellaria: 2
